Reference: patent EP0252380B1, “Antibiotic LL-E19020 alpha and beta” (AMERICAN CYANAMID COMPANY, priority 1986, dated 1988)
Values after ≈ are worked out from the molar mass of the structure shown.

How the values were obtained:
[1] = test system: Pasteurella multocida 31081B; test: Pasteurella disk test (primary in vitro disk diffusion test); details: disks soaked in 2.5 mg/ml solution; strain 31081B
Streptococcus agalactiae = test: Minimum inhibitory concentration by agar dilution (Table VI); assay type: cell-based; details: 4 strains tested
[2] = test system: In Vitro Rumen Fermentation; test: Propionate enhancement activity during in vitro rumen fermentation; assay type: cell-based, steer; details: for A:P: acetate/propionate ratio
Description: The drugs are dissolved or suspended (sonified if necessary) in a 0.1% Tween 20-ethanol-water vehicle and 25-50 ul is added to the incubation. The reaction is terminated with 6N HCl and centrifuged at 20,000 x g. Alliquots of the superinatant are analyzed for volatile fatty acid (VFA) content by gas-liquid chromatography.

Streptococcus uberis = test: Minimum inhibitory concentration by agar dilution (Table VI); assay type: cell-based; details: 1 strain tested
[3] = test system: Staphylococcus aureus Smith; test: In vivo antibacterial activity in infected mice (Table III); details: S. aureus Smith, 30 minutes before infection
[4] = test system: Staphylococcus saprophyticus; test: In vitro antibacterial activity, standard agar dilution method (Table II); assay type: cell-based; details: strain VHG-84-50
Staphylococcus aureus = test: as above; assay type: cell-based
Babesia bovis = test: Anti-Babesia bovis activity, 3H hypoxanthine incorporation in in vitro culture; details: parasitemia of 4%
Streptococcus faecalis = test: Minimum inhibitory concentration by agar dilution (Table VI); assay type: cell-based; details: 1 strain tested
Streptococcus pyogenes = test: as above; assay type: cell-based; details: 2 strains tested
[5] = test system: Pasteurella haemolytica 30660; test: Pasteurella disk test (primary in vitro disk diffusion test); assay type: cell-based; details: disks soaked in 2.5 mg/ml solution; strain 30660
Klebsiella pneumoniae = test: In vitro antibacterial activity, standard agar dilution method (Table II); assay type: cell-based; details: strain AD
Treponema hyodysenteriae = test: T. hyodysenteriae disk test (primary in vitro disk diffusion test); details: disks soaked in 2.5 mg/ml solution, zones of inhibited hemolysis
Caenorhabditis elegans = test: Control of the free living nematode Caenorhabditis elegans (motility rating); assay type: cell-based; set-up: key: 9 = worms immobile or dead within 4 hours post immersion in microfilter test solution; 8 = no motility; 7 = markedly reduced motility in approximately 95% of worms; 6 = reduced motility; 5 = slightly reduced motility; 0 = normal motility, same as controls; details: 150 ppm; motility of adults and larvae
From the text: Culture Maintenance: Cultures of C. elegans (Bristol strain from J. Lewis) are maintained on E. coli lawns on NG Agar Plates at 20 C. New cultures are established weekly. Nematodes for testing are washed from 4-5 day old cultures using Fresh Ascaris ringers Solution (FARS). The worms are further washed with FARS, containing gentamycin, to reduce bacterial contamination and centrifuged to separate worms from wash solution. This procedure is repeated three times. The washed worms are than added to C. briggsae Maintenance Medium (CbMM), from GIBCO^a to which is added gentamycin (600 units/ml) and mycostatin (0.5 mg.ml). ^aGIBCO Laboratories, 3175 Staley Road, Grand Island, N.Y. 14027, USA Compounds are dissolved in acetone and made up to volume with equal parts of water. The final test concentration of each compound in the mixture is 150 ppm. The test material is micropipetted (25 ul) into a single well of a 96-well sterile tissue culture plate (COSTAR)^b and the solvent allowed to evaporate. These "treated" plates are used immediately or stored in a freezer without apparent adverse effects on the compounds. ^b205 Broadway, Cambridge, MA 02139, USA […] […] Immediately prior to reading the plate, it is gently tapped to stimulate the movement of the worms. Activity is judged subjectively, but semi-quantitatively, based on the drug effects on motility of the adults and larvae. […]

[6] = test system: Streptococcus sp. (β-hemolytic); test: In vitro antibacterial activity, standard agar dilution method (Table II); assay type: cell-based
[7] = Table X, 0.008 PPM, control 2.65
[8] = Table X, 0.008 PPM, control 159.4
[9] = Table X, 0.031 PPM, control 2.65
[10] = Table X, 0.031 PPM, control 159.4
[11] = Table X, 0.125 PPM, control 2.65
[12] = Table X, 0.125 PPM, control 159.4
[13] = Table X, 0.500 PPM, control 2.65
[14] = Table X, 0.500 PPM, control 159.4
[15] = Table X, 2.000 PPM, control 2.65
[16] = Table X, 2.000 PPM, control 159.4
[17] = Table XI, 0.015 PPM, control 2.19
[18] = Table XI, 0.015 PPM, control 125.3
[19] = Table XI, 0.031 PPM, control 2.19
[20] = Table XI, 0.031 PPM, control 125.3
[21] = Table XI, 0.062 PPM, control 2.19
[22] = Table XI, 0.062 PPM, control 125.3
[23] = Table XI, 0.125 PPM, control 2.19
[24] = Table XI, 0.125 PPM, control 125.3
[25] = Table XI, 0.250 PPM, control 2.19
[26] = Table XI, 0.250 PPM, control 125.3
[27] = single subcutaneous dose 4 mg/kg
[28] = single subcutaneous dose 16 mg/kg
[29] = single subcutaneous dose 64 mg/kg
[30] = single subcutaneous dose 256 mg/kg

Compound: C/C=C\C=C\[C@@H]1O[C@](O)([C@H](CO[C@H]2C[C@@H](OC)[C@@H](O[C@@H]3C[C@@H](OC)[C@@H](O[C@H]4C[C@H](OC)[C@H](O)[C@H](C)O4)[C@H](C)O3)[C@@H](C)O2)C(=O)NC/C=C/C=C(\C)[C@@H](OC)[C@H](C)[C@H]2C[C@H](O)[C@H](/C=C/C=C/C=C/C(=O)O)O2)[C@H](OC(=O)Cc2ccccc2)[C@H](O)C1(C)C [LL-E19020 alpha]
- ZONE SIZE [1]: 15 mm
- MIC (Streptococcus agalactiae): 2 to 8 µg/mL
- A:P [2, 7]: 2.66
- TOTAL VFA [2, 8]: 161.2 mM
- A:P [2, 9]: 2.43
- TOTAL VFA [2, 10]: 158.4 mM
- A:P [2, 11]: 2.14
- TOTAL VFA [2, 12]: 159.2 mM
- A:P [2, 13]: 2.27
- TOTAL VFA [2, 14]: 146.9 mM
- A:P [2, 15]: 2.21
- TOTAL VFA [2, 16]: 150.5 mM
- A:P [2, 17]: 2.05
- TOTAL VFA [2, 18]: 125.1 mM
- A:P [2, 19]: 1.96
- TOTAL VFA [2, 20]: 126.5 mM
- A:P [2, 21]: 1.90
- TOTAL VFA [2, 22]: 126.3 mM
- A:P [2, 23]: 1.92
- TOTAL VFA [2, 24]: 121.9 mM
- A:P [2, 25]: 1.85
- TOTAL VFA [2, 26]: 121.1 mM
- MIC (Streptococcus uberis): 8 µg/mL (≈ 6.52 µM)
- Survival Ratios 7 Days After Infection [3, 27]: 2/5
- Survival Ratios 7 Days After Infection [3, 28]: 3/5
- Survival Ratios 7 Days After Infection [3, 29]: 3/5
- Survival Ratios 7 Days After Infection [3, 30]: 3/5
- Minimal Inhibitory Concentration [4]: > 256 µg/mL
- Minimal Inhibitory Concentration (Staphylococcus aureus; strain ATCC 25923): > 256 µg/mL
- Minimal Inhibitory Concentration (Staphylococcus aureus; strain CMC-83-127): > 256 µg/mL
- Minimal Inhibitory Concentration (Staphylococcus aureus; strain CMC-83-131): > 256 µg/mL
- Minimal Inhibitory Concentration (Staphylococcus aureus; strain CMC-83-132): > 256 µg/mL
- Minimal Inhibitory Concentration (Staphylococcus aureus; strain SSC-82-57): > 256 µg/mL
- Minimal Inhibitory Concentration (Staphylococcus aureus; strain Smith): 128 µg/mL
- Minimal Inhibitory Concentration (Staphylococcus aureus; strain VGH-84-45): > 256 µg/mL
- 50% inhibitory concentration (Babesia bovis): 0.625 µg/mL
- MIC (Streptococcus faecalis): 8 µg/mL (≈ 6.52 µM)
- MIC (Streptococcus pyogenes): 2 µg/mL (≈ 1.63 µM)
- ZONE SIZE [5]: 13 mm
- Minimal Inhibitory Concentration (Klebsiella pneumoniae): >256 µg/mL
- ZONE SIZE (Treponema hyodysenteriae; strain B78 (ATCC 27164)): 0 mm
- ZONE SIZE (Treponema hyodysenteriae; strain B204 (ATCC 31212)): 15 mm
- Rating (Caenorhabditis elegans): 9 (immobile or dead)
- Minimal Inhibitory Concentration ([6]; strain C203): 0.5 µg/mL
- Minimal Inhibitory Concentration ([6]; strain VGH-84-60): 0.25 µg/mL
- Minimal Inhibitory Concentration ([6]; strain VGH-84-61): 1 µg/mL
- Minimal Inhibitory Concentration ([6]; strain VGH-84-62): 1 µg/mL
- Minimal Inhibitory Concentration ([6]; strain VGH-84-63): 0.12 µg/mL
- Minimal Inhibitory Concentration ([6]; strain VGH-84-64): 0.12 µg/mL

Compound: C/C=C/C=C/[C@@H]1O[C@](O)([C@H](CO[C@H]2C[C@H](OC)[C@H](O[C@@H]3C[C@H](OC)[C@@H](O[C@H]4C[C@H](OC)[C@H](O)[C@H](C)O4)[C@H](C)O3)[C@H](C)O2)C(=O)NC/C=C/C=C(\C)[C@H](OC)[C@@H](C)[C@@H]2C[C@H](O)[C@@H](/C=C/C=C/C=C\C(=O)O)O2)[C@@H](O)[C@H](OC(=O)Cc2ccccc2)C1(C)C [LL-E19020 beta]
- ZONE SIZE [1]: 13 mm
- MIC (Streptococcus agalactiae): 2 to 4 µg/mL
- A:P [2, 7]: 2.63
- TOTAL VFA [2, 8]: 161.2 mM
- A:P [2, 9]: 2.44
- TOTAL VFA [2, 10]: 161.1 mM
- A:P [2, 11]: 2.19
- TOTAL VFA [2, 12]: 161.6 mM
- A:P [2, 13]: 2.15
- TOTAL VFA [2, 14]: 156.7 mM
- A:P [2, 15]: 2.18
- TOTAL VFA [2, 16]: 153.8 mM
- A:P [2, 17]: 2.03
- TOTAL VFA [2, 18]: 127.2 mM
- A:P [2, 19]: 1.98
- TOTAL VFA [2, 20]: 125.7 mM
- A:P [2, 21]: 1.96
- TOTAL VFA [2, 22]: 123.7 mM
- A:P [2, 23]: 1.92
- TOTAL VFA [2, 24]: 124.3 mM
- A:P [2, 25]: 1.93
- TOTAL VFA [2, 26]: 122.6 mM
- MIC (Streptococcus uberis): 4 µg/mL (≈ 3.26 µM)
- Survival Ratios 7 Days After Infection [3, 27]: 1/5
- Survival Ratios 7 Days After Infection [3, 28]: 1/5
- Survival Ratios 7 Days After Infection [3, 29]: 1/5
- Survival Ratios 7 Days After Infection [3, 30]: 1/5
- Minimal Inhibitory Concentration [4]: > 128 µg/mL
- Minimal Inhibitory Concentration (Staphylococcus aureus; strain ATCC 25923): > 256 µg/mL
- Minimal Inhibitory Concentration (Staphylococcus aureus; strain CMC-83-127): > 128 µg/mL
- Minimal Inhibitory Concentration (Staphylococcus aureus; strain CMC-83-131): > 128 µg/mL
- Minimal Inhibitory Concentration (Staphylococcus aureus; strain CMC-83-132): > 128 µg/mL
- Minimal Inhibitory Concentration (Staphylococcus aureus; strain SSC-82-57): > 128 µg/mL
- Minimal Inhibitory Concentration (Staphylococcus aureus; strain Smith): > 128 µg/mL
- Minimal Inhibitory Concentration (Staphylococcus aureus; strain VGH-84-45): > 128 µg/mL
- MIC (Streptococcus faecalis): 8 µg/mL (≈ 6.52 µM)
- MIC (Streptococcus pyogenes): 2 to 4 µg/mL
- ZONE SIZE [5]: 13 mm
- Minimal Inhibitory Concentration (Klebsiella pneumoniae): >128 µg/mL
- ZONE SIZE (Treponema hyodysenteriae; strain B204 (ATCC 31212)): 11 mm
- Rating (Caenorhabditis elegans): 9 (immobile or dead)
- Minimal Inhibitory Concentration ([6]; strain C203): 0.5 µg/mL
- Minimal Inhibitory Concentration ([6]; strain VGH-84-60): 0.25 µg/mL
- Minimal Inhibitory Concentration ([6]; strain VGH-84-61): 0.5 µg/mL
- Minimal Inhibitory Concentration ([6]; strain VGH-84-62): 0.5 µg/mL
- Minimal Inhibitory Concentration ([6]; strain VGH-84-63): 0.12 µg/mL
- Minimal Inhibitory Concentration ([6]; strain VGH-84-64): 0.12 µg/mL
